“And” between values parts separate entries of the source, which are not always exact repeats. Equal values may be shown once. Inconclusive results and toxic doses are left out. How the source made its calls: active means survival T/C of 150% or more; inactive means T/C below 125% in these data.
Tested on: P388 leukemia ip, CD2F1 mice, survival T/C
Test: NCI In Vivo Anticancer Drug Screen. Data for tumor model P388 Leukemia (intraperitoneal) in CD2F1 (CDF1) mice
Settings: endpoint: median survival time, higher = longer survival
Summary of the method: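 Mice carrying the transplanted tumor received test compound or vehicle. Survival was recorded in each group, and the value is the treated-group measurement divided by that of the vehicle-treated control group.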

[1] = dose: 6.25 mg/kg/injection, schedule: Q01DX009 (ip), vehicle: saline
[2] = dose: 12.5 mg/kg/injection, schedule: Q01DX009 (ip), vehicle: saline
[3] = dose: 25.0 mg/kg/injection, schedule: Q01DX009 (ip), vehicle: saline
[4] = dose: 60.0 mg/kg/injection, schedule: Q01DX005 (ip), vehicle: saline with Tween-80
[5] = dose: 120.0 mg/kg/injection, schedule: Q01DX005 (ip), vehicle: saline with Tween-80
[6] = dose: 6.25 mg/kg/injection, schedule: Q01DX009 (ip), vehicle: saline with Tween-80
[7] = dose: 12.5 mg/kg/injection, schedule: Q01DX009 (ip), vehicle: saline with Tween-80
[8] = dose: 25.0 mg/kg/injection, schedule: Q01DX009 (ip), vehicle: saline with Tween-80
[9] = dose: 50.0 mg/kg/injection, schedule: Q01DX009 (ip), vehicle: saline with Tween-80
[10] = dose: 100.0 mg/kg/injection, schedule: Q01DX009 (ip), vehicle: saline with Tween-80
[11] = dose: 200.0 mg/kg/injection, schedule: Q01DX009 (ip), vehicle: saline with Tween-80
[12] = dose: 100.0 mg/kg/injection, schedule: Q04DX002 (ip), vehicle: saline with Tween-80
[13] = dose: 200.0 mg/kg/injection, schedule: Q04DX002 (ip), vehicle: saline with Tween-80
[14] = dose: 400.0 mg/kg/injection, schedule: Q04DX002 (ip), vehicle: saline with Tween-80
[15] = dose: 50.0 mg/kg/injection, schedule: Q01DX009 (ip), vehicle: saline
[16] = dose: 25.0 mg/kg/injection, schedule: Q01DX005 (ip), vehicle: saline with Tween-80
[17] = dose: 50.0 mg/kg/injection, schedule: Q01DX005 (ip), vehicle: saline with Tween-80

Measured: T/C

CC(=O)Nc1ccc(C(O)C2=CC(=O)c3ccccc3C2=O)cc1 (configuration not stated)
inactive: [1] 97 % of control | [2] 97 % of control | [3] 86 % of control | dose: 25.0 mg/kg/injection, schedule: Q01DX009 (ip), vehicle: suspension in saline 103 % of control | dose: 50.0 mg/kg/injection, schedule: Q01DX009 (ip), vehicle: suspension in saline 114 % of control | dose: 100.0 mg/kg/injection, schedule: Q01DX009 (ip), vehicle: suspension in saline 113 % of control

COc1cc2cc(-c3ccccn3)nc(N)c2cc1OC
inactive: [4] 100 % of control | [5] 101 % of control

S=[As]1(c2cccc3ccccc23)c2ccccc2-c2ccccc21
inactive: dose: 30.0 mg/kg/injection, schedule: Q01DX009 (ip), vehicle: saline with Tween-80 106 % of control | dose: 60.0 mg/kg/injection, schedule: Q01DX009 (ip), vehicle: saline with Tween-80 100 % of control | dose: 120.0 mg/kg/injection, schedule: Q01DX009 (ip), vehicle: saline with Tween-80 110 % of control

Nc1cc(=O)[nH]c(N)n1
inactive: [6] 106 % of control | [7] 106 % of control | [8] 106 % of control | [9] 104 % of control and 108 % of control | [10] 107 % of control | [11] 104 % of control

CC(C)C1OC(=O)/C=C/C=C/C=C/C=C/C=C/CC(O)C(C)C(O)CC(O)CC(O)CC(O)CC(O)CC(O)CC(O)/C=C/C1C (configuration not stated)
inactive: dose: 1.56 mg/kg/injection, schedule: Q01DX009 (ip), vehicle: saline 100 % of control | dose: 3.12 mg/kg/injection, schedule: Q01DX009 (ip), vehicle: saline 96 % of control | [1] 102 % of control and 92 % of control

CC(=O)OCC#CCOC(C)=O
inactive: dose: 12.5 mg/kg/injection, schedule: Q01DX009 (ip), vehicle: saline sonified 100 % of control | dose: 25.0 mg/kg/injection, schedule: Q01DX009 (ip), vehicle: saline sonified 100 % of control | dose: 50.0 mg/kg/injection, schedule: Q01DX009 (ip), vehicle: saline sonified 100 % of control

C(=C1CC(=Cc2ccccc2)C1)c1ccccc1
inactive: dose: 100.0 mg/kg/injection, schedule: Q01DX001 (ip), vehicle: Klucel (hydroxypropylcellulose) (HPC) 94 % of control | dose: 200.0 mg/kg/injection, schedule: Q01DX001 (ip), vehicle: Klucel (hydroxypropylcellulose) (HPC) 88 % of control | dose: 400.0 mg/kg/injection, schedule: Q01DX001 (ip), vehicle: Klucel (hydroxypropylcellulose) (HPC) 88 % of control

COc1ccc2nc3cc(Cl)ccc3c(NCCC3CCCN4CCCCC34)c2c1 (configuration not stated)
inactive: dose: 12.5 mg/kg/injection, schedule: Q01DX005 (ip), vehicle: distilled water + Tween-80 109 % of control | dose: 25.0 mg/kg/injection, schedule: Q01DX005 (ip), vehicle: distilled water + Tween-80 114 % of control

OC1(C2CCCC2)C2C=CC1C1CCCCCCC12 (configuration not stated)
inactive: [12] 100 % of control | [13] 100 % of control | [14] 97 % of control

CN(C)c1nc(N(C)C)nc(N(C)C=O)n1
inactive: dose: 100.0 mg/kg/injection, schedule: Q01DX001 (ip), vehicle: saline 99 % of control | dose: 200.0 mg/kg/injection, schedule: Q01DX001 (ip), vehicle: saline 97 % of control | dose: 400.0 mg/kg/injection, schedule: Q01DX001 (ip), vehicle: saline 100 % of control

Cc1cc(-c2c(C)[nH]n(-c3cc(C)c4cc(F)ccc4n3)c2=O)n(-c2cc(C)c3cc(F)ccc3n2)n1
inactive: [4] 102 % of control | [5] 101 % of control | dose: 240.0 mg/kg/injection, schedule: Q01DX005 (ip), vehicle: saline with Tween-80 98 % of control

O=[N+]([O-])c1cccc(N2CN(c3ccccc3)NC(c3ccccc3)=N2)c1
inactive: dose: 50.0 mg/kg/injection, schedule: Q04DX003 (ip), vehicle: saline with Tween-80 90 % of control | dose: 200.0 mg/kg/injection, schedule: Q04DX003 (ip), vehicle: saline with Tween-80 107 % of control

O=C1c2ccccc2C(=O)N1/N=C/c1cccc(Cl)c1
inactive: [12] 100 % of control | [13] 93 % of control | [14] 89 % of control

CCN(CC)CCCC(C)Nc1nc(-c2ccc(OC)cc2)nc2cc(Cl)ccc12 (configuration not stated)
inactive: dose: 50.0 mg/kg/injection, schedule: Q01DX005 (ip), vehicle: saline 102 % of control | dose: 100.0 mg/kg/injection, schedule: Q01DX005 (ip), vehicle: saline 93 % of control

COC(=O)COC(=O)CCCCC(=O)OCC(=O)OC
inactive: [15] 111 % of control | dose: 100.0 mg/kg/injection, schedule: Q01DX009 (ip), vehicle: saline 109 % of control | dose: 200.0 mg/kg/injection, schedule: Q01DX009 (ip), vehicle: saline 103 % of control

C[Si](C)(C)OSc1ccccc1[N+](=O)[O-]
inactive: dose: 12.5 mg/kg/injection, schedule: Q01DX009 (ip), vehicle: Klucel (hydroxypropylcellulose) (HPC) 121 % of control | [9] 120 % of control | dose: 100.0 mg/kg/injection, schedule: Q01DX009 (ip), vehicle: Klucel (hydroxypropylcellulose) (HPC) 122 % of control | [10] 114 % of control | [11] 115 % of control

O=C(CC(=O)C(F)(F)F)c1cccs1
inactive: [6] 100 % of control | [7] 100 % of control and 104 % of control | [8] 103 % of control and 110 % of control | [9] 100 % of control and 111 % of control and 114 % of control

O=C(O)CCNS(=O)(=O)c1ccc2c(c1)-c1ccccc1C2
inactive: [8] 92 % of control | [9] 102 % of control and 104 % of control and 97 % of control | [10] 101 % of control and 107 % of control and 98 % of control | [11] 102 % of control and 124 % of control

O=C(OC1(c2nccc3ccccc23)CCN(Cc2ccccc2)CC1)c1ccccc1
inactive: [2] 100 % of control | [3] 101 % of control | [9] 93 % of control | [15] 97 % of control

COc1ccc2c(c1OC)C(=C(Cl)Cl)N1CCc3cc4c(cc3C1=C2C=O)OCO4
inactive: dose: 12.5 mg/kg/injection, schedule: Q01DX005 (ip), vehicle: saline with Tween-80 98 % of control | [16] 92 % of control | [17] 90 % of control and 96 % of control

COc1ccc(SS(=O)c2ccc(OC)cc2)cc1 (configuration not stated)
inactive: [12] 100 % of control | [13] 102 % of control | [14] 102 % of control

CC(C)(C)C(Br)C(=O)NN=C(c1ccccc1)c1ccccc1 (configuration not stated)
inactive: [9] 106 % of control | [10] 105 % of control | [11] 99 % of control

CC(C)(NCc1ccccc1)C(=O)OC(C)(C)C(=O)NCc1ccccc1
inactive: [16] 100 % of control and 103 % of control | [17] 95 % of control and 108 % of control | dose: 100.0 mg/kg/injection, schedule: Q01DX005 (ip), vehicle: saline with Tween-80 95 % of control

O=C(COc1cccc(Cl)c1)NCc1ccc([N+](=O)[O-])cc1
inactive: dose: 100.0 mg/kg/injection, schedule: Q01DX001 (ip), vehicle: saline with Tween-80 100 % of control | dose: 200.0 mg/kg/injection, schedule: Q01DX001 (ip), vehicle: saline with Tween-80 90 % of control | dose: 400.0 mg/kg/injection, schedule: Q01DX001 (ip), vehicle: saline with Tween-80 100 % of control

O=c1[nH]c(=O)c2[nH]c(N=Nc3ccc(S(=O)(=O)O)cc3)nc2[nH]1
inactive: dose: 50.0 mg/kg/injection, schedule: Q01DX005 (ip), vehicle: Klucel (hydroxypropylcellulose) (HPC) 95 % of control | dose: 100.0 mg/kg/injection, schedule: Q01DX005 (ip), vehicle: Klucel (hydroxypropylcellulose) (HPC) 99 % of control | dose: 200.0 mg/kg/injection, schedule: Q01DX005 (ip), vehicle: Klucel (hydroxypropylcellulose) (HPC) 100 % of control
